# From patent US20110034507A1, “FARNESOID X RECEPTOR AGONISTS” (SMITHKLINE BEECHAM CORPORATION, priority 2007, published 2011)
# Molecular target: T1, Human FXRα Ligand Binding Domain (Homo sapiens, UniProt Q96RI1)
# T1 construct: polyhistidine (pRSET-A vector leader) (N); made in house; host or cells: E. coli BL21 (DE3), pRSET-A vector
# T1 sequence (Q96RI1 237-472 isoform Q96RI1-2): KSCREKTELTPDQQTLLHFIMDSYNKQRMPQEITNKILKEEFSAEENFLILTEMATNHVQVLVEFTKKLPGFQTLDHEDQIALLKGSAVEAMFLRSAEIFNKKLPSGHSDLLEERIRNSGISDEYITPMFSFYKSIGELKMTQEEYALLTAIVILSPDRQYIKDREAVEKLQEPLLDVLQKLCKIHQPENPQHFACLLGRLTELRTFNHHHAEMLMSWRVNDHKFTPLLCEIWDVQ
# Assay: FXR Cofactor Binding Assay (ligand mediated SRC-1 cofactor peptide interaction, time resolved fluorescence)
# Format: biochemical
# Settings: FXRα LBD / SRC-1 (LCD2, 676-700) peptide, TRF; read-out: Activity (pEC50) (converted)
# Description: Determination of a ligand mediated cofactor peptide interaction to quantify ligand binding to the nuclear receptor Farnesoid X Receptor (FXR). The method measures the ability of putative ligands to modulate the interaction between the purified bacterial expressed FXRα ligand binding domain (LBD) and a synthetic biotinylated peptide based on residues 676-700 of steroid receptor coactivator-1 (SRC-1) (LXXLL-containing domain-2 where L is the amino acid leucine and X indicates any other amino acid (LCD2), 676-700). The sequence of the SRC-1 peptide used is as published in Iannone, M. A., et al., 2001 Cytometry 44:326-337 where the N-terminus was biotinylated (B) and the C-terminus was amidated. Detection of the associated complex was measured by time resolved fluorescence (TRF). The purified LBD of FXR was labeled with biotin, then mixed with stoichiometric amounts of allophycocyanin (APC) labeled streptavidin (Molecular Probes). The biotinylated peptide was then mixed with a ½ stoichiometric amount of europium labeled streptavidin (Wallac Inc). Each was then blocked with a 5 fold excess of biotin and allowed to equilibrate for 15 min. Equimolar amounts of receptor and peptide were mixed together and were allowed to equilibrate for at least 30 min prior to the addition to either a variable or constant concentrations of the sample for which the affinity is to be determined. After equilibration, the time-resolved fluorescent signal was quantitated using a fluorescent plate reader. The affinity of the test compound was estimated from a plot of fluorescence versus concentration of test compound added.
# Ligands that promote the complex formation induce a concentration-dependent increase in time-resolved fluorescent signal.
# Human FXRα Ligand Binding Domain (FXRα LBD) was expressed in E. coli strain BL21 (DE3) as an amino-terminal polyhistidine tagged fusion protein. Expression was under the control of an isopropyl-β-D-thiogalactopyranoside (IPTG) inducible T7 promoter. DNA encoding this recombinant protein is subcloned into the pRSET-A expression vector (Invitrogen). The coding sequence of Human FXRα LBD was derived from Genbank accession number U 68233 (amino acids 237 to 472).
# Ten-liter fermentation batches were grown in Rich PO4 media with 0.1 mg/mL Ampicillin at 25° C. for 12 hours, cooled to 9° C. and held at that temperature for 36 hours to a density of OD600=14. At this cell density, 0.25 mM IPTG is added and induction proceeded for 24 hours at 9° C., to a final OD600=16. Cells are harvested by centrifugation (20 minutes, 3500×gravity, 4° C.), and concentrated cell slurries were stored in phosphate buffered saline (PBS) at […].
# Routinely, 30-40 g cell paste (equivalent to 2-3 liters of the fermentation batch) was resuspended in 200-250 mL Tris buffered saline (TBS), pH 7.2 (25 mM Tris-hydroxymethylamino methane (Tris), 150 mM sodium chloride). Cells were lysed by passing 3 times through a French Press and cell debris was removed by centrifugation (30 minutes, 20,000×gravity, 4° C.). The cleared supernatant was filtered through course pre-filters, and TBS, pH 7.2, 500 mM imidazole was added to obtain a final imidazole concentration of 50 mM. This lysate was loaded onto a column (6×8 cm) packed with Sepharose [Ni^++ charged] Chelation resin (Pharmacia) and pre-equilibrated with TBS pH 7.2/50 mM imidazole. After washing to baseline absorbance with equilibration buffer, the column was washed with one column volume of TBS pH 7.2 containing 90 mM imidazole. FXRα LBD was eluted directly with 365 mM imidazole. Column fractions were pooled and dialyzed against TBS, pH 7.2, containing 0.5 mM EDTA and 5 mM DTT. The dialyzed protein sample was concentrated using Centri-prep 10 K (Amicon) and subjected to size exclusion, using a column (3×90 cm) packed with Sepharose S-75 resin (Pharmacia) pre-equilibrated with TBS, pH 7.2, containing 0.5 mM ethylene diamine tetraacetic acid (EDTA) and 5 mM dithiothreitol (DTT).
row,EC50 [µM],Structure (SMILES)
1,0.102 to 1,"CC(C)c1onc(-c2c(Cl)cccc2Cl)c1COc1ccc2c(ccn2C(=O)c2cccc(C(=O)O)c2)c1 [Example 10, 3-{[5-({[3-(2,6-Dichlorophenyl)-5-(1-methylethyl)-4-isoxazoly]methyl}oxy)-1H-indol-1-yl]carbonyl}benzoic acid]"
2,0.102 to 1,"CC(C)c1onc(-c2c(Cl)cccc2Cl)c1COc1ccc2cc(-c3ccc(Cl)c(C(=O)O)c3)ccc2c1 [Example 34, 2-Chloro-5-[6-({[3-(2,6-dichlorophenyl)-5-(1-methylethyl)-4-isoxazolyl]methyl}oxy)-2-naphthalenyl]benzoic acid]"
3,0.102 to 1,"CC(C)c1onc(-c2c(Cl)cccc2Cl)c1COc1ccc2c(ccn2Cc2cccc(-c3nnn[nH]3)c2)c1 [Example 12, 5-({[3-(2,6-Dichlorophenyl)-5-(1-methylethyl)-4-isoxazolyl]methyl}oxy)-1-{[3-(1H-tetrazol-5-yl)phenyl]methyl}-1H-indole]"
4,0.102 to 1,"CC(=O)N(C(C)=O)c1cccc(-c2ccc3cc(OCc4c(-c5c(Cl)cccc5Cl)noc4C(C)C)ccc3c2)c1 [Example 27, N-acetyl-N-{3-[6-({[3-(2,6-dichlorophenyl)-5-(1-methylethyl)-4-isoxazolyl]methyl}oxy)-2-naphthalenyl]phenyl}acetamide]"
5,0.102 to 1,"CC(C)c1onc(-c2c(Cl)cccc2Cl)c1COc1ccc2cc(-c3ccnc(C(=O)O)c3)ccc2c1 [Example 20, 4-[6-({[3-(2,6-Dichlorophenyl)-5-(1-methylethyl)-4-isoxazolyl]methyl}oxy)-2-naphthalenyl]-2-pyridinecarboxylic acid]"
6,0.102 to 1,"CC(C)c1onc(-c2c(Cl)cccc2Cl)c1COc1ccc2c(c1)CCN(c1cccc(C(=O)O)c1)C2=O [Example 60, 3-[6-({[3-(2,6-Dichlorophenyl)-5-(1-methylethyl)-4-isoxazolyl]methyl}oxy)-1-oxo-3,4-dihydro-2(1H)-isoquinolinyl]benzoic acid]"
7,0.102 to 1,"CC(C)c1onc(-c2c(Cl)cccc2Cl)c1COc1ccc2[nH]c(-c3cccc(C(=O)O)c3)cc2c1 [Example 56, 3-[5-({[3-(2,6-Dichlorophenyl)-5-(1-methylethyl)-4-isoxazolyl]methyl}oxy)-1H-indol-2-yl]benzoic acid]"
8,1.02 to 10,"CC(C)c1onc(CNc2c(Cl)cccc2Cl)c1COc1ccc2c(ccn2Cc2cccc(C(=O)O)c2)c1 [Example 4, 3-{[5-({[3-{[(2,6-dichlorophenyl)amino]methyl}-5-(1-methylethyl)-4-isoxazolyl]methyl}oxy)-1H-indol-1-yl]methyl}benzoic acid]"
9,0.102 to 1,"CC(C)c1onc(-c2c(Cl)cccc2Cl)c1COc1ccc2c(ccn2C(=O)N2CC[C@@H](C(=O)O)C2)c1 [Example 53, (3R)-1-{[5-({[3-(2,6-Dichlorophenyl)-5-(1-methylethyl)-4-isoxazolyl]methyl}oxy)-1H-indol-1-yl]carbonyl}-3-pyrrolidinecarboxylic acid]"
10,0.102 to 1,"CC(C)c1onc(-c2c(Cl)cccc2Cl)c1COc1ccc2ccc(-c3cccc(C(=O)O)c3)cc2c1 [Example 33, 3-[7-({[3-(2,6-Dichlorophenyl)-5-(1-methylethyl)-4-isoxazolyl]methyl}oxy)-2-naphthalenyl]benzoic acid]"
11,0.102 to 1,"CC(C)c1onc(-c2c(Cl)cccc2Cl)c1COc1ccc2c(c1)CC(c1cccc(C(=O)O)c1)C2 (stereo not shown) [Example 57, 3-[5-({[3-(2,6-Dichlorophenyl)-5-(1-methylethyl)-4-isoxazolyl]methyl}oxy)-2,3-dihydro-1H-inden-2-yl]benzoic acid]"
12,0.102 to 1,"CC(C)c1onc(-c2c(Cl)cccc2Cl)c1COc1ccc2sc(-c3ccc(C(=O)O)cc3)cc2c1 [Example 16, 4-[5-({[3-(2,6-Dichlorophenyl)-5-(1-methylethyl)-4-isoxazolyl]methyl}oxy)-1-benzothien-2-yl]benzoic acid]"
13,0.102 to 1,"CC(C)c1onc(-c2c(Cl)cccc2Cl)c1COc1ccc2cc(-c3ccc(C(=O)O)cn3)ccc2c1 [Example 24, 6-[6-({[3-(2,6-Dichlorophenyl)-5-(1-methylethyl)-4-isoxazolyl]methyl}oxy)-2-naphthalenyl]-3-pyridinecarboxylic acid]"
14,0.102 to 1,"CC(C)c1onc(-c2c(Cl)cccc2Cl)c1COc1ccc2cc(-c3ccc(F)c(C(=O)O)c3)ccc2c1 [Example 35, 5-[6-({[3-(2,6-Dichlorophenyl)-5-(1-methylethyl)-4-isoxazolyl]methyl}oxy)-2-naphthalenyl]-2-fluorobenzoic acid]"
15,0.102 to 1,"CC(C)c1onc(-c2c(Cl)cccc2Cl)c1COc1ccc2c(c1)CN(c1cccc(C(=O)O)c1)C2=O [Example 44, 3-[5-({[3-(2,6-Dichlorophenyl)-5-(1-methylethyl)-4-isoxazolyl]methyl}oxy)-1-oxo-1,3-dihydro-2H-isoindol-2-yl]benzoic acid]"
16,0.102 to 1,"CC(C)c1onc(COc2c(Cl)cc(Cl)cc2Cl)c1COc1ccc2c(ccn2Cc2cccc(C(=O)O)c2)c1 [Example 3, 3-[(5-{[(5-(1-methylethyl)-3-{[(2,4,6-trichlorophenyl)oxy]methyl}-4-isoxazolyl)methyl]oxy}-1H-indol-1-yl)methyl]benzoic acid]"
17,0.102 to 1,"Cc1ccc(Cn2ccc3cc(OCc4c(-c5c(Cl)cccc5Cl)noc4C(C)C)ccc32)cc1C(=O)O [Example 48, 5-{[5-({[3-(2,6-Dichlorophenyl)-5-(1-methylethyl)-4-isoxazolyl]methyl}oxy)-1H-indol-1-yl]methyl}-2-methylbenzoic acid]"
18,0.102 to 1,"CC(C)c1onc(-c2c(Cl)cccc2Cl)c1COc1ccc2c(ccn2Cc2cccc(C(=O)O)n2)c1 [Example 49, 6-{[5-({[3-(2,6-Dichlorophenyl)-5-(1-methylethyl)-4-isoxazolyl]methyl}oxy)-1H-indol-1-yl]methyl}-2-pyridinecarboxylic acid]"
19,0.102 to 1,"CC(C)c1onc(-c2ccccc2OC(F)(F)F)c1COc1ccc2c(ccn2Cc2cccc(C(=O)O)c2)c1 [Example 7, 3-[(5-{[(5-(1-Methylethyl)-3-{2-[(trifluoromethyl)oxy]phenyl}-4-isoxazolyl)methyl]oxy}-1H-indol-1-yl)methyl]benzoic acid]"
20,0.102 to 1,"CC(C)c1onc(-c2c(Cl)cccc2Cl)c1COc1ccc2c(ccn2S(=O)(=O)c2cccc(C(=O)O)c2)c1 [Example 43, 3-{[5-({[3-(2,6-Dichlorophenyl)-5-(1-methylethyl)-4-isoxazolyl]methyl}oxy)-1H-indol-1-yl]sulfonyl}benzoic acid]"
21,0.102 to 1,"CC(C)c1onc(-c2c(Cl)cccc2Cl)c1COc1ccc2cc(-c3ccc(CCC(=O)O)cc3)ccc2c1 [Example 23, 3-{4-[6-({[3-(2,6-Dichlorophenyl)-5-(1-methylethyl)-4-isoxazolyl]methyl}oxy)-2-naphthalenyl]phenyl}propanoic acid]"
22,0.102 to 1,"CC(C)c1onc(-c2c(Cl)cncc2Cl)c1COc1ccc2ccn(Cc3cccc(C(=O)O)c3)c2c1 [Example 8, 3-{[6-({[3-(3,5-dichloro-4-pyridinyl)-5-(1-methylethyl)-4-isoxazolyl]methyl}oxy)-1H-indol-1-yl]methyl}benzoic acid]"
